Tests used:
[1] = biological target: T1, oleate desaturase (OD) (Trypanosoma brucei, UniProt Q6UCJ6); assay: whole-cell […]-oleate desaturation, argentation-TLC and scintillation counting; assay type: cell-based; conditions: intact bloodstream-form cells; 50 µM 13-TS, 30 min preincubation, 60 min with [14C]-oleate; may act as a metabolite of the added acid
T1 construct: native full-length enzyme in intact T. brucei cells
T1 sequence (Q6UCJ6 1-408): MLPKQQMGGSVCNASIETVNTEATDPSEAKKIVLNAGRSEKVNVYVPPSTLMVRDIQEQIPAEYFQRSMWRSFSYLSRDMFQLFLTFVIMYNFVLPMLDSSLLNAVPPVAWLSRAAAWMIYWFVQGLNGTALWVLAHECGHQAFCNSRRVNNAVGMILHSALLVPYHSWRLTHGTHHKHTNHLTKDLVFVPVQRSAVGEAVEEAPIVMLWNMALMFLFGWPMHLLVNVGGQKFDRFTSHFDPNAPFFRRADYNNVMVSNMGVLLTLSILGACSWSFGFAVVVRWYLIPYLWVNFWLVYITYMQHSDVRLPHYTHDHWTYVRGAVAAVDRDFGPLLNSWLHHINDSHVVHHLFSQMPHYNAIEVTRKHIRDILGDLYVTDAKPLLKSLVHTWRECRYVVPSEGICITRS

[2] = biological target: T2, stearoyl-CoA desaturase (SCD) (Trypanosoma brucei, UniProt Q57YK1); assay: whole-cell […]-stearate desaturation, argentation-TLC and scintillation counting; assay type: cell-based; conditions: intact bloodstream-form cells; 50 µM 13-TS, 30 min preincubation, 60 min with [14C]-stearate; may act as a metabolite of the added acid
T2 construct: gene Tb08.11J15.870; native enzyme in intact bloodstream-form cells; carries a cytochrome b-like domain
T2 sequence (Q57YK1 1-431): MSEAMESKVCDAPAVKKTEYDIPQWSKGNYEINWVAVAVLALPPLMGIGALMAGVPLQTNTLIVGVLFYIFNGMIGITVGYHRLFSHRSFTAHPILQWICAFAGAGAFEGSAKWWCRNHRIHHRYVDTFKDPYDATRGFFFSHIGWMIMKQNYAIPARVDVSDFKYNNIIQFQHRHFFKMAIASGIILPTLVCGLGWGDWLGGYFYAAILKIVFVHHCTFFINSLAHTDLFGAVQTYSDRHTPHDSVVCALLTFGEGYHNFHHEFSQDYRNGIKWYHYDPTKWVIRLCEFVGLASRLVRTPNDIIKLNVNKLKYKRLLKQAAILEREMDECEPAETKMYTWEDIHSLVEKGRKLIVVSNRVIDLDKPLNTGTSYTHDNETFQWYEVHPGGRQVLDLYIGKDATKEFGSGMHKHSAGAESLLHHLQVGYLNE

CCCCCSCCCCCCCCCCCC(=O)O [13-TS, 13-thiastearic acid]
% conversion of oleate to linoleate with 50 μM inhibitor (control 20.4%) [1]: 7.7%
% conversion of stearate to oleate with 50 μM inhibitor (control 23.1%) [2]: 19%

From paper PMC2997783, “Genetic and Chemical Evaluation of Trypanosoma brucei Oleate Desaturase as a Candidate Drug Target” (PLoS ONE, 2010)
